Assay results as given in PMC10009750, “Development of Selective ADAMTS-5 Peptide Substrates to Monitor Proteinase Activity” (Journal of Medicinal Chemistry, 2023).

Biological target: T1, MMP-2ΔC (catalytic domain of MMP-2) (Homo sapiens, UniProt P08253)
T1 construct: the catalytic domain of MMP-2, i.e., MMP-2ΔC; made in house; host or cells: HEK293 cells (previously transfected stocks)
Assay: Selectivity studies: cleavage of FRET peptide substrates by MMP-2ΔC
Format: biochemical
Settings: substrate 20 μM, MMP-2ΔC 5–10 nM, TNC buffer with 0.005% (v/v) Brij-35, 37 °C; mean of 3–4 independent experiments in triplicate
Experimental: All proteinase assays were performed at 37 °C in a SpectraMax M5 spectrophotometer (Molecular Devices, San Jose, USA) using a 96-well black microplate (Greiner bio-one, Stonehouse, UK) unless otherwise stated. […] N-TIMP-3 was purified as described previously[30] and CT-1746 was a gift from Dr. Yoshifumi Itoh (Kennedy Institute of Rheumatology, University of Oxford). All analyses were carried out using Prism 9 software (GraphPad, La Jolla, CA, USA).
Selectivity studies are described for Abz-TESE↓SRGAIY-Dpa-KK-NH2, the library parent peptide 3, and hit peptides 18–26. A solution of Abz-TESE↓SRGAIY-Dpa-KK-NH2 (22.22 μM) in freshly prepared TNC buffer with 0.005% (v/v) Brij-35 (90 μL) was added to a 96-well clear bottom microplate (Greiner bio-one, Stonehouse, UK) in triplicate. A substrate-only background control was also added in triplicate (90 μL). The resultant solutions were incubated at 37 °C (30 min). An ADAMTS or MMP proteinase was added to substrate wells (10 μL) to give a final proteinase concentration of either 50–90 nM (TS4-4), 25–200 nM (TS5-5), 5–10 nM (MMP-2ΔC), 30 nM (MMP-9ΔC), 92 nM (MMP-1), or 3 μM (MMP-3). TNC buffer with 0.005% (v/v) Brij-35 was added to substrate-only control wells (10 μL). The relative fluorescence intensity was measured at 37 °C for 1 h with readings every 20 s. Activity was read from underneath the microplate, which was covered with a low evaporation lid. […] For each ADAMTS and MMP proteinase, the assay was performed 2–4 times. […] Final rates were expressed as a percentage of substrate cleavage by TS5-5 (mean ± SEM) or in μM s^–1 μM^–1 of proteinase.

T1 sequence (P08253 110-465 limits assumed, stated change not applied): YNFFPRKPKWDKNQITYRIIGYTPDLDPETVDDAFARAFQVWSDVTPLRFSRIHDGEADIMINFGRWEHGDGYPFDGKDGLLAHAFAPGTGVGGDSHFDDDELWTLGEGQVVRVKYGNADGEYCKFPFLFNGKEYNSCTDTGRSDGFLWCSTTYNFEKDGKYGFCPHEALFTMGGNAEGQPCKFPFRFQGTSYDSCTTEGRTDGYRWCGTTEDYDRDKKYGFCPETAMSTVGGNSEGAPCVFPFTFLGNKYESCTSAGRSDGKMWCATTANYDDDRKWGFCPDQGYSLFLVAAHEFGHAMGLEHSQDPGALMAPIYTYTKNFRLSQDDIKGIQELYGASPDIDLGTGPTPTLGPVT

Q: For “Abz-TESE↓SRGAIY-Dpa-KK-NH2 [current, ortho-aminobenzoyl(Abz)-TESE↓SRGAIY-N-3-[2,4-dinitrophenyl]-L-2,3-diaminopropionyl(Dpa)-KK-NH2, reference compound]”, which “rate of cleavage by MMP-2ΔC” value is on record?
A: 0.56 μM s^–1 μM^–1
